Reference: patent US11891387B2, “Monoacylglycerol lipase modulators” (Janssen Pharmaceutica NV, priority 2020, dated 2024)

Biological target: human MGL from HeLa cells (Homo sapiens (Human), UniProt Q99685)
Assay: MGL in vitro activity assay: cleavage of [glycerol-1,3-3H]-oleyl glycerol, activated carbon filtration
Assay type: biochemical
Details: 300 nM [Glycerol-1,3-3H]-oleyl glycerol, endogenously expressed MGL from HeLa cells, one hour incubation
Description: The assay used to measure the in vitro activity of MGL is adapted from the assay used for another serine hydrolase (FAAH) described in Wilson et al., 2003 (A high-throughput-compatible assay for determining the activity of fatty acid amide hydrolase. Wilson S J, Lovenberg T W, Barbier A J. Anal Biochem. 2003 Jul. 15; 318(2):270-5.). The assay consists of combining endogenously expressed MGL from HeLa cells with test compounds, adding [glycerol-1,3-^3H]-oleyl glycerol, incubating for one hour, and then measuring the amount of cleaved [1,3-^3H]-glycerol that passes through an activated carbon filter. The amount of cleaved, tritiated glycerol passing through the carbon filter is proportional to the activity of the MGL enzyme in a particular well/test condition.
Standard conditions for this assay combine 300 nM [Glycerol-1,3-^3H]-oleyl glycerol with human MGL from HeLa cells and test compounds for one hour, after which the reaction is filtered through activated carbon and tritium is measured in the flow through. The test compound concentration in screening mode is 10 μM, while the highest compound concentration in IC50 assays is determined empirically. MGL is the predominant hydrolase in HeLa cells/cell homogenates.

human MGL from HeLa cells, sequence (Q99685 whole entry): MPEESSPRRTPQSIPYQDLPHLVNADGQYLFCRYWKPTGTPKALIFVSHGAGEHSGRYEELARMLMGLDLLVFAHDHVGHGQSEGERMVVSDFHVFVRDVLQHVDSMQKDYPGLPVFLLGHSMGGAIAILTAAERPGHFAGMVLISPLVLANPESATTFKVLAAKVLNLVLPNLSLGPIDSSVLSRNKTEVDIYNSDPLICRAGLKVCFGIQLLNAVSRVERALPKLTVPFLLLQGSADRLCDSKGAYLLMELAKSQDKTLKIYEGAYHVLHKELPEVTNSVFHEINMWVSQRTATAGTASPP

Compound | IC50
C[C@H]1c2nn(C)c(-c3cc(C(F)(F)F)n(C)n3)c2CCN1C(=O)c1cnn2cccc(F)c12 [Example 19, (S)-(2,7-Dimethyl-3-(1-methyl-5-(trifluoromethyl)-1H-pyrazol-3-yl)-2,4,5,7-tetrahydro-6H-pyrazolo[3,4-c]pyridin-6-yl)(4-fluoropyrazolo[1,5-a]pyridin-3-yl)methanone] | 19 nM
COc1cc(C(=O)N2CCc3c(nn(C)c3-c3cc(C(F)(F)F)n(C)n3)[C@@H]2C)c2ccccc2n1 [Example 20, (S)-(2,7-Dimethyl-3-(1-methyl-5-(trifluoromethyl)-1H-pyrazol-3-yl)-2,4,5,7-tetrahydro-6H-pyrazolo[3,4-c]pyridin-6-yl)(2-methoxyquinolin-4-yl)methanone] | 8.2 nM
C[C@H]1c2nn(C)c(-c3cc(C(F)(F)F)nn3C)c2CCN1C(=O)c1ccc(F)c2c1cnn2C [Example 21, (S)-(2,7-Dimethyl-3-(1-methyl-3-(trifluoromethyl)-1H-pyrazol-5-yl)-2,4,5,7-tetrahydro-6H-pyrazolo[3,4-c]pyridin-6-yl)(7-fluoro-1-methyl-1H-indazol-4-yl)methanone] | 5.6 nM
C[C@H]1c2nn(C)c(-c3cc(C(F)(F)F)nn3C)c2CCN1C(=O)c1nn(C)c2ccc(F)cc12 [Example 22, (S)-(2,7-Dimethyl-3-(1-methyl-3-(trifluoromethyl)-1H-pyrazol-5-yl)-2,4,5,7-tetrahydro-6H-pyrazolo[3,4-c]pyridin-6-yl)(5-fluoro-1-methyl-1H-indazol-3-yl)methanone] | 30 nM
C[C@H]1c2nn(C)c(-c3cc(C(F)(F)F)nn3C)c2CCN1C(=O)c1cccc2nn(C)cc12 [Example 23, (S)-(2,7-Dimethyl-3-(1-methyl-3-(trifluoromethyl)-1H-pyrazol-5-yl)-2,4,5,7-tetrahydro-6H-pyrazolo[3,4-c]pyridin-6-yl)(2-methyl-2H-indazol-4-yl)methanone] | 84 nM
Cc1nc2cc(F)ccc2cc1C(=O)N1CCc2c(nn(C)c2-c2cc(C(F)(F)F)nn2C)[C@@H]1C [Example 24, (S)-(2,7-Dimethyl-3-(1-methyl-3-(trifluoromethyl)-1H-pyrazol-5-yl)-2,4,5,7-tetrahydro-6H-pyrazolo[3,4-c]pyridin-6-yl)(7-fluoro-2-methylquinolin-3-yl)methanone] | 1760 nM
Cc1ccc2nc(C)cc(C(=O)N3CCc4c(nn(C)c4-c4cc(C(F)(F)F)nn4C)[C@@H]3C)c2c1 [Example 25, (S)-(2,7-Dimethyl-3-(1-methyl-3-(trifluoromethyl)-1H-pyrazol-5-yl)-2,4,5,7-tetrahydro-6H-pyrazolo[3,4-c]pyridin-6-yl)(2,6-dimethylquinolin-4-yl)methanone] | 90 nM
COc1ccc2nc(C)cc(C(=O)N3CCc4c(nn(C)c4-c4cc(C(F)(F)F)nn4C)[C@@H]3C)c2c1 [Example 26, (S)-(2,7-Dimethyl-3-(1-methyl-3-(trifluoromethyl)-1H-pyrazol-5-yl)-2,4,5,7-tetrahydro-6H-pyrazolo[3,4-c]pyridin-6-yl)(6-methoxy-2-methylquinolin-4-yl)methanone] | 880 nM
C[C@H]1c2nn(C)c(-c3cnn(C)c3C(F)(F)F)c2CCN1C(=O)c1nn(C)c2cc(F)cc(F)c12 [Example 27, (S)-(4,6-Difluoro-1-methyl-1H-indazol-3-yl)(2,7-dimethyl-3-(1-methyl-5-(trifluoromethyl)-1H-pyrazol-4-yl)-2,4,5,7-tetrahydro-6H-pyrazolo[3,4-c]pyridin-6-yl)methanone] | 1170 nM
C[C@H]1c2nn(C)c(-c3cnn(C)c3C(F)(F)F)c2CCN1C(=O)c1n[nH]c2cc(F)cc(F)c12 [Example 28, (S)-(4,6-Difluoro-1H-indazol-3-yl)(2,7-dimethyl-3-(1-methyl-5-(trifluoromethyl)-1H-pyrazol-4-yl)-2,4,5,7-tetrahydro-6H-pyrazolo[3,4-c]pyridin-6-yl)methanone] | 2120 nM
C[C@H]1c2nn(C)c(-c3cc(C(F)(F)F)nn3C)c2CCN1C(=O)c1ccccc1C(F)(F)F [Example 29, (S)-(2,7-Dimethyl-3-(1-methyl-3-(trifluoromethyl)-1H-pyrazol-5-yl)-2,4,5,7-tetrahydro-6H-pyrazolo[3,4-c]pyridin-6-yl)(2-(trifluoromethyl)phenyl)methanone] | 150 nM
Cc1ccc(C(=O)N2CCc3c(nn(C)c3-c3cnn(C)c3C(F)(F)F)[C@@H]2C)c(F)c1 [Example 30, (S)-(2,7-Dimethyl-3-(1-methyl-5-(trifluoromethyl)-1H-pyrazol-4-yl)-2,4,5,7-tetrahydro-6H-pyrazolo[3,4-c]pyridin-6-yl)(2-fluoro-4-methylphenyl)methanone] | 3070 nM
C[C@H]1c2nn(C)c(-c3cnn(C)c3C(F)(F)F)c2CCN1C(=O)c1cccc2cnn(C)c12 [Example 31, (S)-(2,7-Dimethyl-3-(1-methyl-5-(trifluoromethyl)-1H-pyrazol-4-yl)-2,4,5,7-tetrahydro-6H-pyrazolo[3,4-c]pyridin-6-yl)(1-methyl-1H-indazol-7-yl)methanone] | 10000 nM

The next lines start with the values.

IC50 | Compound
4560 nM | C[C@H]1c2nn(C)c(-c3cnn(C)c3C(F)(F)F)c2CCN1C(=O)c1ccnc2c1cnn2C [Example 32, (S)-(2,7-Dimethyl-3-(1-methyl-5-(trifluoromethyl)-1H-pyrazol-4-yl)-2,4,5,7-tetrahydro-6H-pyrazolo[3,4-c]pyridin-6-yl)(1-methyl-1H-pyrazolo[3,4-b]pyridin-4-yl)methanone]
6470 nM | Cc1ccc2cc(C(=O)N3CCc4c(nn(C)c4-c4cnn(C)c4C(F)(F)F)[C@@H]3C)cc(C)c2n1 [Example 33, (S)-(2,7-Dimethyl-3-(1-methyl-5-(trifluoromethyl)-1H-pyrazol-4-yl)-2,4,5,7-tetrahydro-6H-pyrazolo[3,4-c]pyridin-6-yl)(2,8-dimethylquinolin-6-yl)methanone]
2190 nM | Cc1cc(C(=O)N2CCc3c(nn(C)c3-c3cnn(C)c3C(F)(F)F)[C@@H]2C)c2cc(F)ccc2n1 [Example 34, (S)-(2,7-Dimethyl-3-(1-methyl-5-(trifluoromethyl)-1H-pyrazol-4-yl)-2,4,5,7-tetrahydro-6H-pyrazolo[3,4-c]pyridin-6-yl)(6-fluoro-2-methylquinolin-4-yl)methanone]
25 nM | COc1cccc(C(=O)N2CCc3c(nn(C)c3-c3cc(C(F)(F)F)nn3C)[C@@H]2C)c1Cl [Example 35, (S)-(2-Chloro-3-methoxyphenyl)(2,7-dimethyl-3-(1-methyl-3-(trifluoromethyl)-1H-pyrazol-5-yl)-2,4,5,7-tetrahydro-6H-pyrazolo[3,4-c]pyridin-6-yl)methanone]
23 nM | COc1cccc(C(=O)N2CCc3c(nn(C)c3-c3cc(C(F)(F)F)nn3C)[C@@H]2C)c1C [Example 36, (S)-(2,7-Dimethyl-3-(1-methyl-3-(trifluoromethyl)-1H-pyrazol-5-yl)-2,4,5,7-tetrahydro-6H-pyrazolo[3,4-c]pyridin-6-yl)(3-methoxy-2-methylphenyl)methanone]
380 nM | C[C@H]1c2nn(C)c(-c3cc(C(F)(F)F)nn3C)c2CCN1C(=O)c1cc(F)ccc1-n1cccn1 [Example 37, (S)-(2,7-Dimethyl-3-(1-methyl-3-(trifluoromethyl)-1H-pyrazol-5-yl)-2,4,5,7-tetrahydro-6H-pyrazolo[3,4-c]pyridin-6-yl)(5-fluoro-2-(1H-pyrazol-1-yl)phenyl)methanone]
73 nM | COc1cccc(C(=O)N2CCc3c(nn(C)c3-c3cc(C(F)(F)F)nn3C)[C@@H]2C)c1 [Example 38, (S)-(2,7-Dimethyl-3-(1-methyl-3-(trifluoromethyl)-1H-pyrazol-5-yl)-2,4,5,7-tetrahydro-6H-pyrazolo[3,4-c]pyridin-6-yl)(3-methoxyphenyl)methanone]
38 nM | COc1cc(Cl)cc(C(=O)N2CCc3c(nn(C)c3-c3cc(C(F)(F)F)nn3C)[C@@H]2C)c1 [Example 39, (S)-(3-Chloro-5-methoxyphenyl)(2,7-dimethyl-3-(1-methyl-3-(trifluoromethyl)-1H-pyrazol-5-yl)-2,4,5,7-tetrahydro-6H-pyrazolo[3,4-c]pyridin-6-yl)methanone]
230 nM | COc1ccc(C(=O)N2CCc3c(nn(C)c3-c3cc(C(F)(F)F)nn3C)[C@@H]2C)c(C)c1 [Example 40, (S)-(2,7-Dimethyl-3-(1-methyl-3-(trifluoromethyl)-1H-pyrazol-5-yl)-2,4,5,7-tetrahydro-6H-pyrazolo[3,4-c]pyridin-6-yl)(4-methoxy-2-methylphenyl)methanone]
62 nM | COc1cc(C)ccc1C(=O)N1CCc2c(nn(C)c2-c2cc(C(F)(F)F)nn2C)[C@@H]1C [Example 41, (S)-(2,7-Dimethyl-3-(1-methyl-3-(trifluoromethyl)-1H-pyrazol-5-yl)-2,4,5,7-tetrahydro-6H-pyrazolo[3,4-c]pyridin-6-yl)(2-methoxy-4-methylphenyl)methanone]
100 nM | COc1ccc(C(=O)N2CCc3c(nn(C)c3-c3cc(C(F)(F)F)nn3C)[C@@H]2C)c(Cl)c1 [Example 42, (S)-(2-Chloro-4-methoxyphenyl)(2,7-dimethyl-3-(1-methyl-3-(trifluoromethyl)-1H-pyrazol-5-yl)-2,4,5,7-tetrahydro-6H-pyrazolo[3,4-c]pyridin-6-yl)methanone]
33 nM | Cc1ccc(C(=O)N2CCc3c(nn(C)c3-c3cc(C(F)(F)F)nn3C)[C@@H]2C)cc1C [Example 43, (S)-(2,7-Dimethyl-3-(1-methyl-3-(trifluoromethyl)-1H-pyrazol-5-yl)-2,4,5,7-tetrahydro-6H-pyrazolo[3,4-c]pyridin-6-yl)(3,4-dimethylphenyl)methanone]
